Measured values from ChEMBL document CHEMBL4043164, “Design, synthesis and biological evaluation of novel antitumor spirotetrahydrothiopyran-oxindole derivatives as potent p53-MDM2 inhibitors” (Bioorg Med Chem, 2017).

Assays:
HCT-116 = assay: Cytotoxicity against human HCT116 cells assessed as reduction in cell viability incubated for 24 hrs by CCK8 assay; conditions: HCT-116, 24 h
A549 = assay: Cytotoxicity against human A549 cells assessed as reduction in cell viability incubated for 24 hrs by CCK8 assay; conditions: A549, 24 h
MCF7 = assay: Cytotoxicity against human MCF7 cells assessed as reduction in cell viability incubated for 24 hrs by CCK8 assay; conditions: MCF7, 24 h

SMILES: COc1ccc(C2=N[C@H](c3ccc(Cl)cc3)[C@H](c3ccc(Cl)cc3)N2C(=O)N2CCNC(=O)C2)c(OC(C)C)c1
- IC50 (HCT-116): 28.4 µM
- IC50 (A549): 10 µM
- IC50 (MCF7): 14.9 µM

SMILES: COc1ccc(N2C[C@H]3[C@@H](CS[C@]4(C(=O)Nc5cccc(Br)c54)[C@@H]3c3ccc(Br)cc3)CC2=O)cc1
- IC50 (HCT-116): 8.3 µM
- IC50 (A549): 4.3 µM
- IC50 (MCF7): 3 µM

SMILES: O=C1C[C@@H]2CS[C@]3(C(=O)Nc4cccc(Br)c43)[C@H](c3ccc(Br)cc3)[C@H]2CN1c1ccccc1
- IC50 (HCT-116): 8.6 µM
- IC50 (A549): 4.2 µM
- IC50 (MCF7): 4 µM

SMILES: COC(=O)C[C@@H]1CS[C@]2(C(=O)Nc3cccc(Br)c32)[C@H](c2ccc(Br)cc2)[C@H]1CNc1ccccc1F
- IC50 (HCT-116): 10.5 µM
- IC50 (A549): 4.2 µM
- IC50 (MCF7): 3.6 µM

SMILES: O=C1Nc2cccc(Br)c2[C@@]12SC[C@@H](CCO)[C@H](CO)[C@H]2c1ccc(Br)cc1
- IC50 (HCT-116): 19.1 µM
- IC50 (A549): 16.5 µM
- IC50 (MCF7): 13.5 µM

SMILES: COC(=O)C[C@@H]1CS[C@]2(C(=O)Nc3cccc(Br)c32)[C@H](c2ccc(Br)cc2)[C@H]1CNc1cccc(F)c1
- IC50 (HCT-116): 8.6 µM
- IC50 (A549): 3.5 µM
- IC50 (MCF7): 2.8 µM

SMILES: CCOc1ccc(N2C[C@H]3[C@@H](CS[C@]4(C(=O)Nc5cccc(Br)c54)[C@@H]3c3ccc(Br)cc3)CC2=O)cc1
- IC50 (HCT-116): 10.4 µM
- IC50 (A549): 2.6 µM
- IC50 (MCF7): 3.2 µM

SMILES: O=C1C[C@@H]2CS[C@]3(C(=O)Nc4cccc(Br)c43)[C@H](c3ccc(Br)cc3)[C@H]2CN1c1cccc(F)c1
- IC50 (HCT-116): 9.5 µM
- IC50 (A549): 3.5 µM
- IC50 (MCF7): 3.8 µM

SMILES: CN1CCN(c2ccc(N3C[C@H]4[C@@H](CS[C@]5(C(=O)Nc6cccc(Br)c65)[C@@H]4c4ccc(Br)cc4)CC3=O)cc2)CC1
- IC50 (HCT-116): 8.8 µM
- IC50 (A549): 6.3 µM
- IC50 (MCF7): 5.9 µM

SMILES: O=C1C[C@@H]2CS[C@]3(C(=O)Nc4cccc(Br)c43)[C@H](c3ccc(Br)cc3)[C@H]2CN1c1ccc(N2CCOCC2)cc1
- IC50 (HCT-116): 4.3 µM
- IC50 (A549): 2.6 µM
- IC50 (MCF7): 2.4 µM

SMILES: Cc1ccc(N2C[C@H]3[C@@H](CS[C@]4(C(=O)Nc5cccc(Br)c54)[C@@H]3c3ccc(Br)cc3)CC2=O)cc1
- IC50 (HCT-116): 5.1 µM
- IC50 (A549): 4.6 µM
- IC50 (MCF7): 3 µM

SMILES: O=C1C[C@@H]2CS[C@]3(C(=O)Nc4cccc(Br)c43)[C@H](c3ccc(Br)cc3)[C@H]2CN1c1ccc(Cl)cc1
- IC50 (HCT-116): 8 µM
- IC50 (A549): 4.8 µM
- IC50 (MCF7): 4.2 µM

SMILES: O=C1C[C@@H]2CS[C@]3(C(=O)Nc4cccc(Br)c43)[C@H](c3ccc(Br)cc3)[C@H]2CN1c1ccc(F)cc1F
- IC50 (HCT-116): 9.8 µM
- IC50 (A549): 2.5 µM
- IC50 (MCF7): 4.4 µM

SMILES: COC(=O)C[C@@H]1CS[C@]2(C(=O)Nc3cccc(Br)c32)[C@H](c2ccc(Br)cc2)[C@H]1C=O
- IC50 (HCT-116): 17.3 µM
- IC50 (A549): 11.2 µM
- IC50 (MCF7): 8.5 µM

SMILES: O=C1C[C@@H]2CS[C@]3(C(=O)Nc4cccc(Br)c43)[C@H](c3ccc(Br)cc3)[C@H]2CN1c1ccc(F)cc1
- IC50 (HCT-116): 10.5 µM
- IC50 (A549): 4.4 µM
- IC50 (MCF7): 4 µM

SMILES: O=C1C[C@@H]2CS[C@]3(C(=O)Nc4cccc(Br)c43)[C@H](c3ccc(Br)cc3)[C@H]2CN1c1ccccc1F
- IC50 (HCT-116): 9.3 µM
- IC50 (A549): 2.3 µM
- IC50 (MCF7): 4.6 µM

SMILES: O=C1C[C@@H]2CS[C@]3(C(=O)Nc4cccc(Br)c43)[C@H](c3ccc(Br)cc3)[C@H]2CN1c1ccc(-c2ccccc2)cc1
- IC50 (HCT-116): 5.6 µM
- IC50 (A549): 4.1 µM
- IC50 (MCF7): 6.9 µM

SMILES: CCN(CC)c1ccc(N2C[C@H]3[C@@H](CS[C@]4(C(=O)Nc5cccc(Br)c54)[C@@H]3c3ccc(Br)cc3)CC2=O)cc1
- IC50 (HCT-116): 2.4 µM
- IC50 (A549): 2.9 µM
- IC50 (MCF7): 1.8 µM

SMILES: CCOc1cccc(N2C[C@H]3[C@@H](CS[C@]4(C(=O)Nc5cccc(Br)c54)[C@@H]3c3ccc(Br)cc3)CC2=O)c1
- IC50 (HCT-116): 8.5 µM
- IC50 (A549): 4.5 µM
- IC50 (MCF7): 3.6 µM
